Earlier results as cited in US20160346171A1, “ORAL COMPOSITION AND CONFECTION” (TEIKYO UNIVERSITY, priority 2015, published 2016).
Where two headings read alike, the source gives them in different places.

Columns and labels:
Candida [1] = settings: mouse
Candida [2] = settings: for concentration inhibiting in vitro Candida mycelial growth by 95%: each independently, JP 2013-40156 A

Structure (SMILES)	tongue symptoms (Candida [1]; 19.5 mg/mL solution, three times (50 μL at a time) into the oral cavity, Taguchi Y. et al. 2011)	concentration inhibiting in vitro Candida mycelial growth by 95% (Candida [2])	tongue symptoms (Candida [1]; 1% (=10 mg/mL) solution, three times (50 μL at a time), JP 2013-40156 A)	concentration inhibiting in vitro Candida mycelial growth by 50% (Candida [2]; Inoue S. et al. 2012)
O=CC=Cc1ccccc1 [cinnamaldehyde]	ameliorated the tongue symptoms			
CC(C)=CCCC(C)=CC=O [citral]		at least 50 μg/mL		
CCCCCCCCCC(=O)O [decanoic acid]		at least 3.13 μg/mL	ameliorated the tongue symptoms	≥ 3.13 µg/mL
C=CCc1ccc(O)c(OC)c1 [eugenol]		at least 200 μg/mL		
CC(C)=CCC/C(C)=C/CO [geraniol]		at least 25 μg/mL		
